Residues, ends and D or L forms follow the SMILES beside them.
What was measured:
Type in all cases: cell-based, human
HSC-4 cells [1] = test: MTT growth inhibition by SSTP1 with or without IL6 pathway inhibitors; details: 4h SSTP1 (10 μM), pre-treatment LMT-28 60 μM 1.5 h, Anti-IL6Rα 10µg/ml 2h, SC144 40 μM 2h
Method: (§1) Concentration- and time-dependent effects on cell growth inhibition were measured using the MTT [3-(4,5-dimethylthiazol-2-yl)−2,5-diphenyltetrazolium bromide] assay. 5000 cells/well were seeded in 96-well plate and were treated with peptides for 48h. Cells were incubated with MTT (1.25 mg/ml) for 2 hours at 37°C. The blue formazan crystals were solubilized in isopropanol and read at 595 nm.
Figure 8 SSTP1-induced pcJUN activation depends on JNK and on gp130 and IL6Rα. (A) HSC-4 cells treated with SSTP1 (30 minute) and the indicated inhibitors were used for western blot analysis of the indicated molecules (B) Densitometric analysis was done for the bands of (a) and relative phosphorylation based on untreated is plotted. (C) The cells treated with SSTP1 (30 minutes) and IL6Rα antibody or SC144 were used for western blot analysis of the indicated molecules. (D) Densitometric analysis was done for the bands of (C) and relative phosphorylation based on untreated is plotted. (E) Growth inhibition analyzed by MTT assay after 4h treatment with SSTP1(10 μM) with or without the inhibitors. LMT-28 (60 μM). For all the experiments SSTP1 (10 μM) was used with or without LMT-28 (60 μM), Ruxolitinib (30 μM) or SP600125 (20 μM), Anti-IL6Rα (10µg/ml) or SC144 (40 μM). […]

HSC-4 cells [2] = test: MTT growth inhibition assay, HSC-4 cells; details: 48 h
Method: as §1
IC50 value for HSC-4 cells and MDA-MB-231cells were calculated with Dose-response model. Analysis of dose-response data is made available through the ‘drc’ package in R environment for statistical computing. […] The statistical significance between two groups was analyzed using Students paired two-tailed t-test.
Figure 1 SSTP1 induces apoptosis in oral cancer cells (A) HSC-4 cells were treated with peptides SSTP1 and SSTP2 at different concentrations in 0.5% DMEM for 48 h, and MTT assay was performed to calculate % growth inhibition. […] (C)The quantified populations are represented in the graph. […] (D) The HSC-4 cells treated with 10 μM SSTP1 or SSTP2 for indicated time intervals were used for western blot analyses (E) Densitometric analysis was done for the bands, and fold change based on 0min was calculated. […]

MDA-MB-231 cells = details: 48 h
Method: as §1
IC50 value for HSC-4 cells and MDA-MB-231cells were calculated with Dose-response model. Analysis of dose-response data is made available through the ‘drc’ package in R environment for statistical computing. The “drm” function in the package “drc” is a general model fitting function for analysis of concentration/dose/time-effect/response data and the four parameter a log-logistic model was fitted for estimating the slope, lower, upper and IC50 values. […] The statistical significance between two groups was analyzed using Students paired two-tailed t-test.
Figure 10 Sensitivity of cancer cells to SSTP1 depends on the level of IL6Rα. […] (C) Growth inhibition analyzed by MTT assay using 10 μM SSTP1 treated for 48h. (D) Growth inhibitory curve of SSTP1 for MDA-MB-231 cells and HEK-293 cells analyzed after 48h treatment with SSTP1 and Hemolysis induced by SSTP1 on human RBC. […] (F) The blots were quantified using ImageJ, and the graphs were plotted. *p < .05, **p < .01, ***p < .001.

O=C(NNc1nc2cc(F)ccc2n2cccc12)c1cnccn1 [SC144]
effect on SSTP1-induced growth inhibition (HSC-4 cells [1]): significantly inhibited

CC[C@H](C)[C@H](NC(=O)[C@H](CC(C)C)NC(=O)[C@H](CC(C)C)NC(=O)[C@@H]1CCCN1C(=O)[C@H](CC(C)C)NC(=O)[C@@H](N)Cc1ccccc1)C(=O)N[C@@H](CO)C(=O)N[C@@H](C)C(=O)N[C@@H](CC(C)C)C(=O)N[C@H](C(=O)N[C@@H](CO)C(=O)N[C@@H](CC(C)C)C(=O)N[C@@H](Cc1ccccc1)C(=O)N1CCC[C@H]1C(=O)N[C@@H](CCCCN)C(=O)N[C@@H](CC(C)C)C(=O)NCC(=O)N[C@@H](CCCCN)C(=O)O)[C@@H](C)O [SSTP1] (H-FLPLLISALTSLFPKLGK-OH)
IC50 (HSC-4 cells [2]): 10.2 µM
IC50 (MDA-MB-231 cells): 4.5 µM

CC[C@H](C)[C@H](NC(=O)[C@H](CCCNC(=N)N)NC(=O)[C@H](CCCNC(=N)N)NC(=O)[C@@H]1CCCN1C(=O)[C@H](CC(C)C)NC(=O)[C@@H](N)Cc1ccccc1)C(=O)N[C@@H](CO)C(=O)N[C@@H](C)C(=O)N[C@@H](CCCNC(=N)N)C(=O)N[C@H](C(=O)N[C@@H](CO)C(=O)N[C@@H](CC(C)C)C(=O)N[C@@H](Cc1ccccc1)C(=O)N1CCC[C@H]1C(=O)N[C@@H](CCCCN)C(=O)N[C@@H](CCCNC(=N)N)C(=O)NCC(=O)N[C@@H](CCCCN)C(N)=O)[C@@H](C)O [SSTP2] (H-FLPRRISARTSLFPKRGK-NH2)
cytotoxicity (growth inhibition) in words (HSC-4 cells [2]; HSC-4 cells, MTT): negligible cytotoxicity

Reference: PMC8639500, “SSTP1, a Host Defense Peptide, Exploits the Immunomodulatory IL6 Pathway to Induce Apoptosis in Cancer Cells” (Frontiers in Immunology, 2021)
